Reference: ChEMBL document CHEMBL1201861, “Genomics of Drug Sensitity in Cancer screening data, Wellcome Trust Sanger Institute”

Experiments:
Assay in all cases: cells
SNU-C2B = format: functional, cell-based, Homo sapiens; conditions: Homo sapiens, SNU-C2B;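 note: cell viability readout used to measure compound-driven suppression of SNU-C2B cell proliferation, IC50 marking half-maximal growth inhibition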
Description: SANGER: Inhibition of human SNU-C2B cell growth in a cell viability assay.

RCC10RGB = format: functional, cell-based, Homo sapiens; conditions: Homo sapiens, RCC10RGB;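 note: growth inhibition of human RCC10RGB cells, read out by a cell viability assay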
Description: SANGER: Inhibition of human RCC10RGB cell growth in a cell viability assay.

HuTu80 = format: functional, cell-based, Homo sapiens, HUTU-80; conditions: Homo sapiens, HuTu80;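 note: growth inhibition of HuTu80 human cells, determined with a cell viability readout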
Description: SANGER: Inhibition of human HUTU-80 cell growth in a cell viability assay.

CW-2 = format: functional, cell-based, Homo sapiens; conditions: Homo sapiens, CW-2;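 note: growth inhibition of CW-2 cells, read out by a cell viability assay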
Description: SANGER: Inhibition of human CW-2 cell growth in a cell viability assay.

CTB-1 = format: functional, cell-based, Homo sapiens; conditions: Homo sapiens, CTB-1
Description: SANGER: Inhibition of human CTB-1 cell growth in a cell viability assay.

LNCaP-Clone-FGC = format: functional, cell-based, Homo sapiens; conditions: Homo sapiens, LNCaP-Clone-FGC
Description: SANGER: Inhibition of human LNCaP-Clone-FGC cell growth in a cell viability assay.

L-363 = format: functional, cell-based, Homo sapiens; conditions: Homo sapiens, L-363
Description: SANGER: Inhibition of human L-363 cell growth in a cell viability assay.

KLE = format: functional, cell-based, Homo sapiens; conditions: Homo sapiens, KLE;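 note: growth inhibition of human KLE cells, read out with a cell viability assay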
Description: SANGER: Inhibition of human KLE cell growth in a cell viability assay.

Becker = format: functional, cell-based, Homo sapiens; conditions: Homo sapiens, Becker;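 note: growth inhibition of Becker cells, read out with a cell viability assay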
Description: SANGER: Inhibition of human Becker cell growth in a cell viability assay.

NCI-H526 = format: functional, cell-based, Homo sapiens; conditions: Homo sapiens, NCI-H526;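 note: growth inhibition of the human NCI-H526 cell line, measured by a cell viability assay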
Description: SANGER: Inhibition of human NCI-H526 cell growth in a cell viability assay.

BE-13 = format: functional, cell-based, Homo sapiens; conditions: Homo sapiens, BE-13;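 note: growth inhibition of human BE-13 cells, measured with a cell viability assay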
Description: SANGER: Inhibition of human BE-13 cell growth in a cell viability assay.

NMC-G1 = format: functional, cell-based, Homo sapiens; conditions: Homo sapiens, NMC-G1;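 note: growth inhibition of the NMC-G1 cell line, measured with a cell viability read-out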
Description: SANGER: Inhibition of human NMC-G1 cell growth in a cell viability assay.

HAL-01 = format: functional, cell-based, Homo sapiens; conditions: Homo sapiens, HAL-01;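 note: growth inhibition of human HAL-01 cells, read out with a cell viability assay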
Description: SANGER: Inhibition of human HAL-01 cell growth in a cell viability assay.

D-263MG = format: functional, cell-based, Homo sapiens; conditions: Homo sapiens, D-263MG
Description: SANGER: Inhibition of human D-263MG cell growth in a cell viability assay.

ML-2 = format: functional, cell-based, Homo sapiens; conditions: Homo sapiens, ML-2;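 note: growth inhibition of ML-2 cells, measured with a cell viability readout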
Description: SANGER: Inhibition of human ML-2 cell growth in a cell viability assay.

8-MG-BA = format: functional, cell-based, Homo sapiens; conditions: Homo sapiens, 8-MG-BA;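 note: growth inhibition of 8-MG-BA cells, read out with a cell viability assay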
Description: SANGER: Inhibition of human 8-MG-BA cell growth in a cell viability assay.

C8166 = format: functional, cell-based, Homo sapiens; conditions: Homo sapiens, C8166;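 note: growth inhibition of human C8166 cells measured by a cell viability assay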
Description: SANGER: Inhibition of human C8166 cell growth in a cell viability assay.

TE-1 = format: functional, cell-based, Homo sapiens; conditions: Homo sapiens, TE-1;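 note: growth inhibition of the human TE-1 cell line, read out with a cell viability assay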
Description: SANGER: Inhibition of human TE-1 cell growth in a cell viability assay.

IA-LM = format: functional, cell-based, Homo sapiens; conditions: Homo sapiens, IA-LM;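 note: cell viability assay measuring growth inhibition of human IA-LM cells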
Description: SANGER: Inhibition of human IA-LM cell growth in a cell viability assay.

SK-NEP-1 = format: functional, cell-based, Homo sapiens; conditions: Homo sapiens, SK-NEP-1;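 note: growth inhibition of human SK-NEP-1 cells, read out by a cell viability assay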
Description: SANGER: Inhibition of human SK-NEP-1 cell growth in a cell viability assay.

RH-1 = format: functional, cell-based, Homo sapiens; conditions: Homo sapiens, RH-1;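 note: growth inhibition of human RH-1 cells, read out with a cell viability assay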
Description: SANGER: Inhibition of human RH-1 cell growth in a cell viability assay.

LU-139 = format: functional, cell-based, Homo sapiens; conditions: Homo sapiens, LU-139
Description: SANGER: Inhibition of human LU-139 cell growth in a cell viability assay.

J-RT3-T3-5 = format: functional, cell-based, Homo sapiens; conditions: Homo sapiens, J-RT3-T3-5;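 note: cell viability assay measuring growth inhibition of human J-RT3-T3-5 cells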
Description: SANGER: Inhibition of human J-RT3-T3-5 cell growth in a cell viability assay.

DMS-79 = format: functional, cell-based, Homo sapiens; conditions: Homo sapiens, DMS-79;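 note: growth inhibition measured with a cell viability assay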
Description: SANGER: Inhibition of human DMS-79 cell growth in a cell viability assay.

MOLT-16 = format: functional, cell-based, Homo sapiens; conditions: Homo sapiens, MOLT-16;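 note: growth inhibition of human MOLT-16 cells, read out with a cell viability assay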
Description: SANGER: Inhibition of human MOLT-16 cell growth in a cell viability assay.

KARPAS-45 = format: functional, cell-based, Homo sapiens; conditions: Homo sapiens, KARPAS-45;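 note: inhibition of cell line growth, read out through a viability assay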
Description: SANGER: Inhibition of human KARPAS-45 cell growth in a cell viability assay.

TE-6 = format: functional, cell-based, Homo sapiens; conditions: Homo sapiens, TE-6;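 note: growth inhibition of TE-6 cells, read out with a cell viability assay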
Description: SANGER: Inhibition of human TE-6 cell growth in a cell viability assay.

COLO-684 = format: functional, cell-based, Homo sapiens; conditions: Homo sapiens, COLO-684
Description: SANGER: Inhibition of human COLO-684 cell growth in a cell viability assay.

RPMI-8866 = format: functional, cell-based, Homo sapiens; conditions: Homo sapiens, RPMI-8866
Description: SANGER: Inhibition of human RPMI-8866 cell growth in a cell viability assay.

HCC1187 = format: functional, cell-based, Homo sapiens; conditions: Homo sapiens, HCC1187;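 note: growth inhibition of HCC1187 cells, read out with a cell viability assay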
Description: SANGER: Inhibition of human HCC1187 cell growth in a cell viability assay.

MFM-223 = format: functional, cell-based, Homo sapiens; conditions: Homo sapiens, MFM-223
Description: SANGER: Inhibition of human MFM-223 cell growth in a cell viability assay.

SK-N-FI = format: functional, cell-based, Homo sapiens; conditions: Homo sapiens, SK-N-FI;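 note: cell viability assay measuring growth inhibition of human SK-N-FI cells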
Description: SANGER: Inhibition of human SK-N-FI cell growth in a cell viability assay.

D-247MG = format: functional, cell-based, Homo sapiens; conditions: Homo sapiens, D-247MG
Description: SANGER: Inhibition of human D-247MG cell growth in a cell viability assay.

GOTO = format: functional, cell-based, Homo sapiens; conditions: Homo sapiens, GOTO;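 note: growth inhibition of GOTO cells, read out by a cell viability assay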
Description: SANGER: Inhibition of human GOTO cell growth in a cell viability assay.

LB373-MEL-D = format: functional, cell-based, Homo sapiens; conditions: Homo sapiens, LB373-MEL-D;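 note: growth inhibition of the cell line, read out in a cell viability assay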
Description: SANGER: Inhibition of human LB373-MEL-D cell growth in a cell viability assay.

NH-12 = format: functional, cell-based, Homo sapiens; conditions: Homo sapiens, NH-12;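 note: growth inhibition of NH-12 cells, read out with a cell viability assay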
Description: SANGER: Inhibition of human NH-12 cell growth in a cell viability assay.

BB65-RCC = format: functional, cell-based, Homo sapiens; conditions: Homo sapiens, BB65-RCC;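 note: growth inhibition of the cell line, measured with a cell viability assay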
Description: SANGER: Inhibition of human BB65-RCC cell growth in a cell viability assay.

JAR = format: functional, cell-based, Homo sapiens; conditions: Homo sapiens, JAR;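 note: growth inhibition of human JAR cells determined with a cell viability assay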
Description: SANGER: Inhibition of human JAR cell growth in a cell viability assay.

MEG-01 = format: functional, cell-based, Homo sapiens; conditions: Homo sapiens, MEG-01;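 note: growth inhibition of MEG-01 cells, read out by a cell viability assay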
Description: SANGER: Inhibition of human MEG-01 cell growth in a cell viability assay.

IST-MES1 = format: functional, cell-based, Homo sapiens; conditions: Homo sapiens, IST-MES1;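 note: growth inhibition of IST-MES1 cells, measured with a cell viability assay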
Description: SANGER: Inhibition of human IST-MES1 cell growth in a cell viability assay.

LS-123 = format: functional, cell-based, Homo sapiens; conditions: Homo sapiens, LS-123
Description: SANGER: Inhibition of human LS-123 cell growth in a cell viability assay.

ONS-76 = format: functional, cell-based, Homo sapiens; conditions: Homo sapiens, ONS-76;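 note: growth inhibition of human ONS-76 cells, read out with a cell viability assay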
Description: SANGER: Inhibition of human ONS-76 cell growth in a cell viability assay.

BV-173 = format: functional, cell-based, Homo sapiens; conditions: Homo sapiens, BV-173
Description: SANGER: Inhibition of human BV-173 cell growth in a cell viability assay.

COLO-824 = format: functional, cell-based, Homo sapiens; conditions: Homo sapiens, COLO-824
Description: SANGER: Inhibition of human COLO-824 cell growth in a cell viability assay.

KY821 = format: functional, cell-based, Homo sapiens; conditions: Homo sapiens, KY821;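 note: growth inhibition of human KY821 cells, read out by a cell viability assay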
Description: SANGER: Inhibition of human KY821 cell growth in a cell viability assay.

SNU-5 = format: functional, cell-based, Homo sapiens; conditions: Homo sapiens, SNU-5;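 note: cell viability readout used to measure growth inhibition in human NCI-SNU-5 cells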
Description: SANGER: Inhibition of human NCI-SNU-5 cell growth in a cell viability assay.

EW-11 = format: functional, cell-based, Homo sapiens; conditions: Homo sapiens, EW-11;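 note: growth inhibition of human EW-11 cells, measured with a cell viability assay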
Description: SANGER: Inhibition of human EW-11 cell growth in a cell viability assay.

Work on COc1cc(-c2nn([C@H]3CC[C@H](N4CCN(C(C)=O)CC4)CC3)c3ncnc(N)c23)ccc1NC(=O)c1cc2ccccc2n1C yielded an IC50 (SNU-C2B) greater than 5120 nM, an IC50 (RCC10RGB) greater than 5120 nM and an IC50 (HuTu80) of 1500 nM. The IC50 (CW-2) was greater than 5120 nM, the IC50 (CTB-1) was greater than 5120 nM and the IC50 (LNCaP-Clone-FGC) was greater than 5120 nM. It also gave an IC50 (L-363) greater than 5120 nM, an IC50 (KLE) of 2500 nM and an IC50 (Becker) of 4210 nM. For the same compound, the IC50 (NCI-H526) was greater than 5120 nM, the IC50 (BE-13) was greater than 5120 nM and the IC50 (NMC-G1) was 573 nM. For the same compound, the IC50 (HAL-01) was 3080 nM, the IC50 (D-263MG) was greater than 5120 nM and the IC50 (ML-2) was greater than 5120 nM. It also gave an IC50 (8-MG-BA) of 4610 nM, an IC50 (C8166) greater than 5120 nM and an IC50 (TE-1) of 2050 nM. The IC50 (IA-LM) was greater than 5120 nM, the IC50 (SK-NEP-1) was greater than 5120 nM and the IC50 (RH-1) was greater than 5120 nM. It also gave an IC50 (LU-139) greater than 5120 nM, an IC50 (J-RT3-T3-5) greater than 5120 nM and an IC50 (DMS-79) greater than 5120 nM. It also gave an IC50 (MOLT-16) greater than 5120 nM, an IC50 (KARPAS-45) greater than 5120 nM and an IC50 (TE-6) greater than 5120 nM. The IC50 (COLO-684) was greater than 5120 nM, the IC50 (RPMI-8866) was greater than 5120 nM and the IC50 (HCC1187) was greater than 5120 nM. The IC50 (MFM-223) was greater than 5120 nM, the IC50 (SK-N-FI) was greater than 5120 nM and the IC50 (D-247MG) was greater than 5120 nM. The IC50 (GOTO) was greater than 5120 nM, the IC50 (LB373-MEL-D) was greater than 5120 nM and the IC50 (NH-12) was greater than 5120 nM. For the same compound, the IC50 (BB65-RCC) was 5060 nM, the IC50 (JAR) was greater than 5120 nM and the IC50 (MEG-01) was 169 nM. It also gave an IC50 (IST-MES1) of 1400 nM, an IC50 (LS-123) greater than 5120 nM and an IC50 (ONS-76) greater than 5120 nM. It also gave an IC50 (BV-173) of 345 nM, an IC50 (COLO-824) greater than 5120 nM and an IC50 (KY821) of 3650 nM. The IC50 (SNU-5) was greater than 5120 nM and the IC50 (EW-11) was greater than 5120 nM.
In the case of CC(=O)O[C@H]1C(=O)[C@@]2(C)[C@H]([C@H](OC(=O)c3ccccc3)[C@]3(O)C[C@H](OC(=O)[C@H](O)[C@@H](NC(=O)c4ccccc4)c4ccccc4)C(C)=C1C3(C)C)[C@]1(OC(C)=O)CO[C@@H]1C[C@@H]2O [PACLITAXEL], the IC50 (SNU-C2B) is reported as 15 nM, the IC50 (RCC10RGB) is reported as greater than 102 nM and the IC50 (HuTu80) is reported as 1.68 nM. For the same compound, the IC50 (CW-2) was greater than 102 nM, the IC50 (CTB-1) was 78.1 nM and the IC50 (LNCaP-Clone-FGC) was greater than 102 nM. The IC50 (L-363) was 13.5 nM, the IC50 (KLE) was greater than 102 nM and the IC50 (Becker) was 7.2 nM. The IC50 (NCI-H526) was 28.9 nM, the IC50 (BE-13) was 6.36 nM and the IC50 (NMC-G1) was 34.5 nM. It also gave an IC50 (HAL-01) greater than 102 nM, an IC50 (D-263MG) greater than 102 nM and an IC50 (ML-2) of 20.5 nM. The IC50 (8-MG-BA) was 7.96 nM, the IC50 (C8166) was greater than 102 nM and the IC50 (TE-1) was 6.06 nM. It also gave an IC50 (IA-LM) of 2.8 nM, an IC50 (SK-NEP-1) of 86.4 nM and an IC50 (RH-1) of 38.2 nM. For the same compound, the IC50 (LU-139) was 59.9 nM, the IC50 (J-RT3-T3-5) was 23.8 nM and the IC50 (DMS-79) was greater than 102 nM. For the same compound, the IC50 (MOLT-16) was 21.5 nM, the IC50 (KARPAS-45) was 12.7 nM and the IC50 (TE-6) was 5.7 nM. The IC50 (COLO-684) was 29.1 nM, the IC50 (RPMI-8866) was 57.1 nM and the IC50 (HCC1187) was 19.2 nM. The IC50 (MFM-223) was greater than 102 nM, the IC50 (SK-N-FI) was greater than 102 nM and the IC50 (D-247MG) was greater than 102 nM. It also gave an IC50 (GOTO) greater than 102 nM, an IC50 (LB373-MEL-D) of 41.1 nM and an IC50 (NH-12) greater than 102 nM. It also gave an IC50 (BB65-RCC) of 25.3 nM, an IC50 (JAR) of 29.5 nM and an IC50 (MEG-01) of 29.8 nM. It also gave an IC50 (IST-MES1) of 79.1 nM, an IC50 (LS-123) of 16.6 nM and an IC50 (ONS-76) of 20.4 nM. The IC50 (BV-173) was 25.5 nM, the IC50 (COLO-824) was greater than 102 nM and the IC50 (KY821) was 27 nM. It also gave an IC50 (SNU-5) of 17 nM and an IC50 (EW-11) greater than 102 nM.
